In patent US20120094897A1, “NOVEL INHIBITORS OF HEPATITIS C VIRUS REPLICATION” (InterMune, Inc., priority 2010, published 2012):

Legend:
[1] = biological target: T1, HCV NS3 protease (full-length NS3/NS4A-2 complex) (Hepatitis C virus genotype 1a, UniProt P27958); experiment: NS3 Inhibition Assay (NS3-NS4 protease assay, RETS1 substrate); assay type: biochemical; conditions: NS3/NS4A-2, RETS1 substrate, 10 minutes pre-incubation
T1 construct: Recombinant E. coli or Baculovirus full-length NS3 was diluted to 3.33 μM with assay buffer; host or cells: E. coli or baculovirus (insect cells)
T1 sequence (P27958 1027-1657, one chain of several): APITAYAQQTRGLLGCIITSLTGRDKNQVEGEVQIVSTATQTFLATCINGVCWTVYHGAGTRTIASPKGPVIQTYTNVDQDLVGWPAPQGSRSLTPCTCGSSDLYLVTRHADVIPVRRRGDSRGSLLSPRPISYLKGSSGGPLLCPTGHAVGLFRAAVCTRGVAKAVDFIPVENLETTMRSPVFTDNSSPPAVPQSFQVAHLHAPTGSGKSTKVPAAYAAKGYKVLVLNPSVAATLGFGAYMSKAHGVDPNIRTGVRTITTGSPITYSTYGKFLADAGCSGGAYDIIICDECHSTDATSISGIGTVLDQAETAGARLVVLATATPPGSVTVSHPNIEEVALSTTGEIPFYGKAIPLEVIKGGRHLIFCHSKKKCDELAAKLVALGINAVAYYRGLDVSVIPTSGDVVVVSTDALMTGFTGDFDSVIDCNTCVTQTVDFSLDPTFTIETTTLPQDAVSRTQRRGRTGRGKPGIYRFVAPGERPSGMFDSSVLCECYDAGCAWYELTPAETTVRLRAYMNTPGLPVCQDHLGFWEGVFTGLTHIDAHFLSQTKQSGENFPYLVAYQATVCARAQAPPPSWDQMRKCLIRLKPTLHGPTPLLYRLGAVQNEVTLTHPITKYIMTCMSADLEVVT
Method: NS3 Complex Formation with NS4A-2.
Recombinant E. coli or Baculovirus full-length NS3 was diluted to 3.33 μM with assay buffer and the material was transferred to an eppendorf tube and placed in a water bath in a 4° C. refrigerator. The appropriate amount of NS4A-2 diluted to 8.3 mM in assay buffer was added to an equal the volume of NS3 above (conversion factor—3.8 mg/272 μL assay buffer). The material was transferred to an eppendorf tube and placed in water bath in a 4° C. refrigerator.
After equilibration to 4° C., equal volumes of NS3 and NS4A-2 solutions were combined in an eppendorf tube, mixed gently with a manual pipettor, and incubated for 15 minutes in the 4° C. water bath. Final concentrations in the mixture are 1.67 μM NS3, 4.15 mM NS4A-2 (2485-fold molar excess NS4A-2).
After 15 minutes at 4° C., the NS3/NS4A-2 eppendorf tube was removed and placed in a room temperature water bath for 10 minutes. NS3/NS4A-2 was aliquoted at appropriate volumes and stored at −80° C. (E. coli NS3 run at 2 nM in assay, aliquot at 25 μL. BV NS3 run at 3 nM in assay, aliquot at 30 μL).
Step a. Sample compounds were dissolved to 10 mM in DMSO then diluted to 2.5 mM (1:4) in DMSO. Typically, compounds were added to an assay plate at 2.5 mM concentration, yielding upon dilution a starting concentration of 50 μM in the assay inhibition curve. Compounds were serial diluted in assay buffer to provide test solutions at lower concentrations.
Step 1. The E. coli. NS3/NS4A-2 was diluted to 4 nM NS3 (1:417.5 of 1.67 μM stock−18 μL 1.67 μM stock+7497 μL assay buffer). The BV NS3/NS4A-2 was diluted to 6 nM NS3 (1:278.3 of 1.67 μM stock−24 μL 1.67 μM stock+6655 μL assay buffer).
Step. 2. Using the manual multichannel pipettor, and being careful not to introduce bubbles into the plate, 50 μL assay buffer was added to wells A01-H01 of a black Costar 96-well polypropylene storage plate.
Step 3. Using the manual multichannel pipettor, and being careful not to introduce bubbles into the plate, 50 μL of diluted NS3/NS4A-2 from step 1 was added to wells A02-H12 of the plate in step 2.
Step 4. Using the manual multichannel pipettor, and being careful not to introduce bubbles into the plate, 25 μL of the wells in drug dilution plate in step a was transferred to corresponding wells in assay plate in step 3. The tips on the multichannel pipettor were changed for each row of compounds transferred.
Step 5. Using the manual multichannel pipettor, and being careful not to introduce bubbles into the plate, the contents of the wells from the assay plate in step 4 were mixed by aspirating and dispensing 35 μL of the 75 μL in each well five times. The tips on multichannel pipettor were changed for each row of wells mixed.
Step 6. The plate was covered with a polystyrene plate lid, and the plate from step 5 containing NS3 protease and sample compounds was pre-incubated 10 minutes at room temperature.
While the plate from step 6 is pre-incubating, the RETS1 substrate was diluted in a 15 mL polypropylene centrifuge tube. The RETS1 substrate was diluted to 8 μM (1:80.75 of 646 μM stock−65 μL 646 μM stock+5184 μL assay buffer).
After the plate in step 6 finished pre-incubating, and using the manual multichannel, 25 μL of substrate was added to all wells on the plate. The contents of the wells of the plate were quickly mixed, as in step 5, mixing 65 μL of the 100 μL in the wells.
The plate was read in kinetic mode on the Molecular Devices SpectraMax Gemini XS plate reader. Reader settings: Read time: 30 minutes, Interval: 36 seconds, Reads: 51, Excitation λ: 335 nm, Emission λ: 495 nm, cutoff: 475 nm, Automix: off, Calibrate: once, PMT: high, Reads/well: 6, Vmax pts: 21 or 28/51 depending on length of linearity of reaction
IC50s are determined using a four parameter curve fit equation, and converted to Ki's using the following Km's: • Full-length E. coli NS3-2.03 μM • Full-length BV NS3-1.74 μM • where Ki=IC50/(1+[S]/Km))

[2] = system: HCV sub-genomic replicon (I377/NS3-3′) in HuH-7 hepatoma cells (GS4.3); experiment: Quantitation by ELISA of NPTII in the HCV sub-genomic replicon, GS4.3; assay type: cell-based; conditions: Hepatitis C virus, GS4.3 replicon cells, 72 h incubation
Method: The HCV sub-genomic replicon (I377/NS3-3′, accession No. AJ242652), stably maintained in HuH-7 hepatoma cells, was created by Lohmann et al. Science 285: 110-113 (1999). The replicon-containing cell culture, designated GS4.3, was obtained from Dr. Christoph Seeger of the Institute for Cancer Research, Fox Chase Cancer Center, Philadelphia, Pa.
GS4.3 cells were maintained at 37° C., 5% CO2, in DMEM (Gibco 11965-092) supplemented with L-glutamine 200 mM (100×) (Gibco25030-081), non-essential amino acids (NEAA)(Biowhittaker 13-114E), heat-inactivated (HI) Fetal Bovine Serum(FBS)(Hyclone SH3007.03) and […] geneticin (G418)(Gibco 10131-035). Cells were sub-divided 1:3 or 4 every 2-3 days.
24 h prior to the assay, GS4.3 cells were collected, counted, and plated in 96-well plates (Costar 3585) at 7500 cells/well in 100 μL standard maintenance medium (above) and incubated in the conditions above. To initiate the assay, culture medium was removed, cells were washed once with PBS (Gibco 10010-023) and 90 μl Assay Medium (DMEM, L-glutamine, NEAA, 10% HI FBS, no G418) was added. Inhibitors were made as a 10× stock in Assay Medium, (3-fold dilutions from 10 μM to […] final concentration, final DMSO concentration 1%), 10 μL were added to duplicate wells, plates were rocked to mix, and incubated as above for 72 h.
An NPTII Elisa kit was obtained from AGDIA, Inc. (Compound direct ELISA test system for Neomycin Phosphotransferase II, PSP 73000/4800). Manufacturer's instructions were followed, with some modifications. 10×PEB-1 lysis buffer was made up to include 500 μM PMSF (Sigma P7626, 50 mM stock in isopropanol). After 72 h incubation, cells were washed once with PBS and 150 μL PEB-1 with PMSF was added per well. Plates were agitated vigorously for 15 minutes, room temperature, and then frozen at −70° C. Plates were thawed, lysates were mixed thoroughly, and 100 μL were applied to an NPTII Elisa plate. A standard curve was made. Lysate from DMSO-treated control cells was pooled, serially diluted with PEB-1 with PMSF, and applied to duplicate wells of the ELISA plate, in a range of initial lysate amount of 150 μL. In addition, 100 μL buffer alone was applied in duplicate as a blank. Plates were sealed and gently agitated at room temperature for 2 h. Following capture incubation, the plates were washed 5×300 μL with PBS-T (0.5% Tween-20, PBS-T was supplied in the ELISA kit). For detection, a 1× dilution of enzyme conjugate diluent MRS-2 (5×) was made in PBS-T, into which 1:100 dilutions of enzyme conjugates A and B were added, as per instructions. Plates were resealed, and incubated with agitation, covered, room temperature, for 2 h. The washing was then repeated and 100 μL of room temperature TMB substrate was added. After approximately 30 minutes incubation (room temperature, agitation, covered), the reaction was stopped with 50 μL 3M sulfuric acid. Plates were read at 450 nm on a Molecular Devices Versamax plate reader.
Inhibitor effect was expressed as a percentage of DMSO-treated control signal, and inhibition curves were calculated using a 4-parameter equation: y=A+4B−A)/(1+((C/x)̂D))), where C is half-maximal activity or EC50.

SMILES: CC[C@@H]1C[C@@]12NC(=O)[C@@H]1C[C@H](CN1C(=O)[C@@H](NC(=O)OC(C)(C)C)C(C)(C)C)Oc1nc3c(cccc3n1C(C)C)C(=O)NCC=CCCCC1(CC1)S(=O)(=O)NC2=O [Compound 9]
- IC50 [1]: ≤ 10 nM
- EC50 [2]: 10 to 100 nM

SMILES: CC[C@@H]1C[C@@]12NC(=O)[C@@H]1C[C@H](CN1C(=O)[C@@H](NC(=O)OC(C)(C)C)C(C)(C)C)Oc1nc3c(cccc3n1C(C)C)C(=O)NCCC=CCCC1(CC1)S(=O)(=O)NC2=O [Compound 10]
- IC50 [1]: ≤ 10 nM
- EC50 [2]: ≥ 100 nM

SMILES: CC[C@@H]1C[C@@]12NC(=O)[C@@H]1C[C@H](CN1C(=O)[C@@H](NC(=O)OC(C)(C)C)C(C)(C)C)Oc1nc3c(cccc3n1C(C)C)C(=O)NCCCCCCC1(CC1)S(=O)(=O)NC2=O [Compound 11]
- IC50 [1]: ≤ 10 nM
- EC50 [2]: ≥ 100 nM

SMILES: CC[C@@H]1C[C@@]12NC(=O)[C@@H]1C[C@H](CN1C(=O)[C@@H](NC(=O)OC(C)(C)C)C(C)(C)C)Oc1nc3c(cccc3n1C(C)C)C(=O)NCCC=CCCCC1(CC1)S(=O)(=O)NC2=O [Compound 12]
- IC50 [1]: ≤ 10 nM
- EC50 [2]: 10 to 100 nM

SMILES: CC[C@@H]1C[C@@]12NC(=O)[C@@H]1C[C@H](CN1C(=O)[C@@H](NC(=O)OC(C)(C)C)C(C)(C)C)Oc1nc3c(cccc3n1C(C)C)C1=NC(C(C)C)=C(CCC=CCCC3(CC3)S(=O)(=O)NC2=O)S1 [Compound 13]
- IC50 [1]: ≤ 10 nM
- EC50 [2]: ≥ 100 nM

SMILES: CC[C@@H]1C[C@@]12NC(=O)[C@@H]1C[C@H](CN1C(=O)[C@@H](NC(=O)OC(C)(C)C)C(C)(C)C)Oc1nc3c(cccc3n1C(C)C)C(=O)NCCCCCCCC1(CC1)S(=O)(=O)NC2=O [Compound 14]
- IC50 [1]: ≤ 10 nM
- EC50 [2]: ≤ 10 nM

SMILES: CC[C@@H]1C[C@@]12NC(=O)[C@@H]1C[C@H](CN1C(=O)[C@@H](NC(=O)OC(C)(C)C)C(C)(C)C)Oc1nc3c(cccc3n1C(C)C)C1=NC(C(C)C)=C(CCCCCCC3(CC3)S(=O)(=O)NC2=O)S1 [Compound 15]
- IC50 [1]: ≤ 10 nM
- EC50 [2]: ≥ 100 nM

SMILES: CC[C@@H]1C[C@@]12NC(=O)[C@@H]1C[C@H](CN1C(=O)[C@@H](NC(=O)OC(C)(C)C)C(C)(C)C)Oc1nc3c(cccc3n1C(C)C)C1=NC(C(C)C)=C(CCC/C=C/CCCC3(CC3)S(=O)(=O)NC2=O)S1 [Compound 101]
- IC50 [1]: ≤ 10 nM
- EC50 [2]: ≥ 100 nM

SMILES: CC[C@@H]1C[C@@]12NC(=O)[C@@H]1C[C@H](CN1C(=O)[C@@H](NC(=O)OC(C)(C)C)C(C)(C)C)Oc1nc3c(cccc3n1C(C)C)C1=NC(C(C)C)=C(CCCCCCCCC3(CC3)S(=O)(=O)NC2=O)S1 [Compound 102]
- IC50 [1]: 10 to 100 nM
- EC50 [2]: ≥ 100 nM

SMILES: CC[C@@H]1C[C@@]12NC(=O)[C@@H]1C[C@H](CN1C(=O)[C@@H](N)C(C)(C)C)Oc1nc3c(cccc3n1C(C)C)C1=NC(C(C)C)=C(CCC/C=C/CCCC3(CC3)S(=O)(=O)NC2=O)S1 [Compound 103]
- IC50 [1]: 10 to 100 nM
- EC50 [2]: ≥ 100 nM

SMILES: CC[C@@H]1C[C@@]12NC(=O)[C@@H]1C[C@H](CN1C(=O)[C@@H](N)C(C)(C)C)Oc1nc3c(cccc3n1C(C)C)C1=NC(C(C)C)=C(CCCCCCCCC3(CC3)S(=O)(=O)NC2=O)S1 [Compound 104]
- IC50 [1]: 10 to 100 nM
- EC50 [2]: ≥ 100 nM

SMILES: CC[C@@H]1C[C@@]12NC(=O)[C@@H]1C[C@H](CN1C(=O)[C@@H](NC(=O)OC(C)(C)C)C(C)(C)C)Oc1nc3c(cccc3n1C(C)C)C1=NC(C(C)C)=C(CC/C=C/CCCCS(=O)(=O)NC2=O)S1 [Compound 105]
- IC50 [1]: ≤ 10 nM
- EC50 [2]: ≥ 100 nM

SMILES: CC[C@@H]1C[C@@]12NC(=O)[C@@H]1C[C@H](CN1C(=O)[C@@H](NC(=O)OC(C)(C)C)C(C)(C)C)Oc1nc3c(cccc3n1C(C)C)C1=NC(C(C)C)=C(CC/C=C\CCCCS(=O)(=O)NC2=O)S1 [Compound 106]
- IC50 [1]: 10 to 100 nM
- EC50 [2]: ≥ 100 nM

SMILES: CC[C@@H]1C[C@@]12NC(=O)[C@@H]1C[C@H](CN1C(=O)[C@@H](NC(=O)OC(C)(C)C)C(C)(C)C)Oc1nc3c(cccc3n1C(C)C)C1=NC(C(C)C)=C(CCCCCCCCS(=O)(=O)NC2=O)S1 [Compound 107]
- IC50 [1]: 10 to 100 nM
- EC50 [2]: ≥ 100 nM

SMILES: CC[C@@H]1C[C@@]12NC(=O)[C@@H]1C[C@H](CN1C(=O)[C@@H](N)C(C)(C)C)Oc1nc3c(cccc3n1C(C)C)C1=NC(C(C)C)=C(CC/C=C\CCCCS(=O)(=O)NC2=O)S1 [Compound 108]
- IC50 [1]: ≥ 100 nM
- EC50 [2]: ≥ 100 nM

SMILES: CC[C@@H]1C[C@@]12NC(=O)[C@@H]1C[C@H](CN1C(=O)[C@@H](N)C(C)(C)C)Oc1nc3c(cccc3n1C(C)C)C1=NC(C(C)C)=C(CC/C=C/CCCCS(=O)(=O)NC2=O)S1 [Compound 109]
- IC50 [1]: ≥ 100 nM
- EC50 [2]: ≥ 100 nM

SMILES: CC[C@@H]1C[C@@]12NC(=O)[C@@H]1C[C@H](CN1C(=O)[C@@H](N)C(C)(C)C)Oc1nc3c(cccc3n1C(C)C)C1=NC(C(C)C)=C(CCCCCCCCS(=O)(=O)NC2=O)S1 [Compound 110]
- IC50 [1]: ≥ 100 nM
- EC50 [2]: ≥ 100 nM
